Experimental data from patent US7138361B2, “Herbicidal heterocycles” (E. I. du Pont de Nemours and Company, priority 2000, dated 2006).

What was measured:
Type in all cases: in vivo
[1] = tested on: Surinam grass (Brachiaria decumbens); experiment: Test B postemergence; conditions: 13 to 15 days
Outline: (§1)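 Ratings on a 0 to 100 visual scale (100 complete control) compare treated plants with controls 13 to 15 days after application. Treatments were pre- or postemergence sprays of compound in non-phytotoxic solvent with surfactant.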

[2] = tested on: barnyardgrass (Echinochloa crus-galli); experiment: Test B postemergence; conditions: 13 to 15 days
Outline: as §1

[3] = tested on: blackgrass (Alopecurus myosuroides); experiment: Test B postemergence; conditions: 13 to 15 days
Outline: as §1

[4] = tested on: cocklebur (Xanthium strumarium); experiment: Test B postemergence; conditions: 13 to 15 days
Outline: as §1

corn (Zea mays) [5] = experiment: Test B postemergence; conditions: 13 to 15 days
Outline: as §1

[6] = tested on: crabgrass (Digitaria sanguinalis); experiment: Test B postemergence; conditions: 13 to 15 days
Outline: as §1

[7] = tested on: giant foxtail (Setaria faberii); experiment: Test B postemergence; conditions: 13 to 15 days
Outline: as §1

[8] = tested on: lambsquarters (Chenopodium album); experiment: Test B postemergence; conditions: 13 to 15 days
Outline: as §1

[9] = tested on: morning glory (Ipomoea hederacea); experiment: Test B postemergence; conditions: 13 to 15 days
Outline: as §1

[10] = tested on: pigweed (Amaranthus retroflexus); experiment: Test B postemergence; conditions: 13 to 15 days
Outline: as §1

[11] = tested on: velvetleaf (Abutilon theophrasti); experiment: Test B postemergence; conditions: 13 to 15 days
Outline: as §1

[12] = tested on: wheat (Triticum aestivum); experiment: Test B postemergence; conditions: 13 to 15 days
Outline: as §1

wild oat (Avena fatua) = experiment: Test B postemergence; conditions: 13 to 15 days
Outline: as §1

[13] = tested on: Surinam grass (Brachiaria decumbens); experiment: Test B preemergence
Outline: as §1

[14] = tested on: barnyardgrass (Echinochloa crus-galli); experiment: Test B preemergence
Outline: as §1

[15] = tested on: cocklebur (Xanthium strumarium); experiment: Test B preemergence
Outline: as §1

corn (Zea mays) [16] = experiment: Test B preemergence
Outline: as §1

[17] = tested on: crabgrass (Digitaria sanguinalis); experiment: Test B preemergence
Outline: as §1

[18] = tested on: giant foxtail (Setaria faberii); experiment: Test B preemergence
Outline: as §1

[19] = tested on: lambsquarters (Chenopodium album); experiment: Test B preemergence
Outline: as §1

[20] = tested on: morning glory (Ipomoea hederacea); experiment: Test B preemergence
Outline: as §1

[21] = tested on: pigweed (Amaranthus retroflexus); experiment: Test B preemergence
Outline: as §1

rice (Oryza saliva) = experiment: Test B preemergence
Outline: as §1

[22] = tested on: velvetleaf (Abutilon theophrasti); experiment: Test B preemergence; conditions: Preemergence, Rate 500 g/ha; scale 0 to 100, 0 no effect, 100 complete control
Outline: as §1

[23] = tested on: smallflower flatsedge (Cyperus difformis); experiment: Test C flooded paddy test; conditions: for Flatsedge plant response rating: Flooded Paddy, scale 0 to 100, 0 no effect, 100 complete control; for Plant response rating, Flatsedge: flooded paddy test, scale 0 to 100 (0 no effect, 100 complete control)
Outline: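 Visually assessed vs untreated controls 12–14 d post-treatment (greenhouse). Flooded paddy plants were at the 2-leaf stage; scale 0 = no effect, 100 = complete control.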

Sunflower [24] = experiment: Test C preemergence; conditions: Rate 250 g/ha, visual evaluation after 12 to 14 days
Sunflower [25] = experiment: Test C preemergence; conditions: Rate 125 g/ha, scale 0 to 100, 0 no effect, 100 complete control
[26] = Rate 125 g/ha, scale 0 (no effect) to 100 (complete control)
[27] = Rate 500 g/ha, scale 0 to 100, 0 is no effect, 100 is complete control
[28] = Preemergence, Rate 500 g/ha, scale 0 to 100, 0 no effect, 100 complete control
[29] = preemergence, Rate 125 g/ha, scale of 0 to 100 where 0 is no effect and 100 is complete control, 13 to 15 days

O=C1C(n2ccc(C3CCCCC3)n2)SCN1c1cccc(C(F)(F)F)c1 (centres unmarked) [Compound 52]
Plant response rating, Surinam grass [1, 26]: 0 | Plant response rating, Surinam grass [1, 27]: 0 | Plant response rating, Barnyardgrass [2, 26]: 0 | Plant response rating, Barnyardgrass [2, 27]: 0 | Plant response rating, Blackgrass [3, 26]: 0 | Plant response rating, Blackgrass [3, 27]: 0 | Plant response rating, Cocklebur [4, 26]: 0 | Plant response rating, Cocklebur [4, 27]: 0 | Plant response rating, Corn (corn (Zea mays) [5]; [26]): 20 | Plant response rating, Corn (corn (Zea mays) [5]; [27]): 20 | Plant response rating, Crabgrass [6, 26]: 0 | Plant response rating, Crabgrass [6, 27]: 0 | Plant response rating, Foxtail, Giant [7, 26]: 0 | Plant response rating, Foxtail, Giant [7, 27]: 0 | Plant response rating, Lambsquarters [8, 26]: 0 | Plant response rating, Lambsquarters [8, 27]: 0 | Plant response rating, Morningglory [9, 26]: 0 | Plant response rating, Morningglory [9, 27]: 0 | Plant response rating, Pigweed [10, 26]: 0 | Plant response rating, Pigweed [10, 27]: 0 | Plant response rating, Velvetleaf [11, 26]: 0 | Plant response rating, Velvetleaf [11, 27]: 0 | Plant response rating, Wheat [12, 26]: 0 | Plant response rating, Wheat [12, 27]: 0 | Plant response rating, Wild Oat (wild oat (Avena fatua); [26]): 0 | Plant response rating, Wild Oat (wild oat (Avena fatua); [27]): 0 | Plant response rating, Surinam grass [13, 28]: 0 | Plant response rating, Surinam grass [13, 29]: 0 | Plant response rating, Barnyardgrass [14, 28]: 100 | Plant response rating, Barnyardgrass [14, 29]: 0 | Plant response rating, Cocklebur [15, 28]: 0 | Plant response rating, Cocklebur [15, 29]: 0 | Plant response rating, Corn (corn (Zea mays) [16]; [28]): 20 | Plant response rating, Corn (corn (Zea mays) [16]; [29]): 0 | Plant response rating, Crabgrass [17, 28]: 100 | Plant response rating, Crabgrass [17, 29]: 100 | Plant response rating, Foxtail, Giant [18, 28]: 100 | Plant response rating, Foxtail, Giant [18, 29]: 90 | Plant response rating, Lambsquarters [19, 28]: 100 | Plant response rating, Lambsquarters [19, 29]: 100 | Plant response rating, Morningglory [20, 28]: 0 | Plant response rating, Morningglory [20, 29]: 0 | Plant response rating, Pigweed [21, 28]: 30 | Plant response rating, Pigweed [21, 29]: 0 | Plant response rating, Rice (rice (Oryza saliva); [28]): 0 | Plant response rating, Rice (rice (Oryza saliva); [29]): 0 | Plant response rating, Velvetleaf [22]: 0 | Flatsedge plant response rating ([23]; Rate 250 g/ha): 100 | Flatsedge plant response rating ([23]; Rate 500 g/ha): 100 | Plant response rating, Flatsedge ([23]; Rate 62 g/ha): 90 | Plant response rating, Flatsedge ([23]; Rate 125 g/ha): 90 | Plant response rating (0 to 100), Sunflower (Sunflower [24]): 0 | Plant response rating, Sunflower (Sunflower [25]): 0
